Source: patent US20240066027A1 (DOMAIN THERAPEUTICS, priority 2020, published 2024)

Key:
[1] = molecular target: T1, human PAR-2 (hPAR-2) receptor expressed in HEK-293 T cells in an endogenous manner (Homo sapiens, UniProt P55085); test: In vitro human PAR-2 functional antagonist activity using calcium assays (Fluo4AM, FLIPR Tetra); format: cell-based; settings: HEK-293 T cells stimulated by an EC80 of the 2-Furoyl-LIGRLO-NH2 peptide after 10 min incubation with compound; 20 concentrations, duplicate, two independent experiments
T1 construct: human PAR-2 (hPAR-2) receptor expressed in HEK-293 T cells in an endogenous manner; endogenous in cells; host or cells: HEK-293 T cells
T1 sequence (P55085 26-397): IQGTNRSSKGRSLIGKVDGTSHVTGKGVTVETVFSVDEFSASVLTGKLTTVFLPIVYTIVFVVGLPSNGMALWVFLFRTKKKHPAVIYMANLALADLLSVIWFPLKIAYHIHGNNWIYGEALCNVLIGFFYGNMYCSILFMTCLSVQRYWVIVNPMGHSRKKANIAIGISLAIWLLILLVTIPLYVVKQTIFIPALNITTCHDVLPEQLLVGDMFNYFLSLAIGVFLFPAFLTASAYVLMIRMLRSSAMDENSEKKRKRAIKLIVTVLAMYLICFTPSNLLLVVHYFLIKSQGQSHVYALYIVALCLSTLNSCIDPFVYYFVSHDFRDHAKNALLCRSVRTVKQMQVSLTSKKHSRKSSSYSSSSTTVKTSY
Procedure, shortened: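 Fluo4AM-loaded HEK-293 T cells were exposed to compound for 10 min to read agonist effect. They were then stimulated with an EC80 of 2-Furoyl-LIGRLO-NH2 and intracellular calcium was recorded for 5 more min on FLIPR. Antagonism was scored against buffer basal and EC80 agonist-alone signals.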

Structure (SMILES) | IC50 [1] [µM] | melting point [°C]
CC(C)Cc1nn(-c2ccc(OC(F)(F)F)cc2)c2ccc(C(=O)N3CCNC(=O)C3(C)C)nc12 [Example 79, 4-(3-isobutyl-1-(4-(trifluoromethoxy)phenyl)-1H-pyrazolo[4,3-b]pyridine-5-carbonyl)-3,3-dimethylpiperazin-2-one] | 0.02 to 10 | 185 to 187
O=C(c1cc2c(cn1)c(-c1ccc(Cl)c(F)c1)nn2CC(F)(F)F)N1CCCOCC1 [Example 89, (3-(4-chloro-3-fluorophenyl)-1-(2,2,2-trifluoroethyl)-1H-pyrazolo[4,3-c]pyridin-6-yl)(1,4-oxazepan-4-yl)methanone] | > 10 | 84 to 88
CC(C)Cn1cc(-c2cccc(OC(F)(F)F)c2)c2ccc(C(=O)N3CCNC(=O)C3(C)C)nc21 [Example 57, 4-[1-isobutyl-3-[3-(trifluoromethoxy)phenyl]pyrrolo[2,3-b]pyridine-6-carbonyl]-3,3-dimethyl-piperazin-2-one] | 0.02 to 10 | 202 to 204
CC(C)Cn1cc(-c2ccncc2)c2ccc(C(=O)N3CCNC(=O)C3(C)C)nc21 [Example 37, 4-(1-isobutyl-3-(pyridin-4-yl)-1H-pyrrolo[2,3-b]pyridine-6-carbonyl)-3,3-dimethylpiperazin-2-one] | > 10 | 200 to 210
CC(C)Cn1cc(-c2cnn(C)c2)c2ccc(C(=O)N3CCNC(=O)C3(C)C)nc21 [Example 44, 4-(1-isobutyl-3-(1-methyl-1H-pyrazol-4-yl)-1H-pyrrolo[2,3-b]pyridine-6-carbonyl)-3,3-dimethylpiperazin-2-one] | > 10 | > 250
O=C(c1cc2c(cn1)c(-c1ccc(Cl)c(F)c1)nn2CC(F)(F)F)N1CC2CCC(C1)O2 [Example 90, (8-oxa-3-azabicyclo[3.2.1]octan-3-yl)(3-(4-chloro-3-fluorophenyl)-1-(2,2,2-trifluoroethyl)-1H-pyrazolo[4,3-c]pyridin-6-yl)methanone] | > 10 | 198 to 200
CC(C)Cn1cc(-c2ccc(N(C)C)nc2)c2ccc(C(=O)N3CCNC(=O)C3(C)C)nc21 [Example 109, 4-(3-(6-(dimethylamino)pyridin-3-yl)-1-isobutyl-1H-pyrrolo[2,3-b]pyridine-6-carbonyl)-3,3-dimethylpiperazin-2-one] | 0.02 to 10 | 205 to 210
COc1ccc(-n2nc(CC(C)C)c3nc(C(=O)N4CCNC(=O)C4(C)C)ccc32)cn1 [Example 92, 4-(3-isobutyl-1-(6-methoxypyridin-3-yl)-1H-pyrazolo[4,3-b]pyridine-5-carbonyl)-3,3-dimethylpiperazin-2-one] | > 10 | 189 to 192
Cc1ccccc1-c1cn(CC(C)C)c2nc(C(=O)N3CCNC(=O)C3(C)C)ccc12 [Example 52, 4-[1-isobutyl-3-(o-tolyl)pyrrolo[2,3-b]pyridine-6-carbonyl]-3,3-dimethyl-piperazin-2-one] | 0.02 to 10 | 225 to 230
CC(C)Cn1cc(-c2ccccc2)c2ccc(C(=O)N3CCNC(=O)C3(C)C)nc21 [Example 49, 4-(1-isobutyl-3-phenyl-pyrrolo[2,3-b]pyridine-6-carbonyl)-3,3-dimethyl-piperazin-2-one] | 0.02 to 10 | 175 to 178
